The structures appear in SMILES notation. Read-outs that look alike come from different tables or passages of the source.

Assay [1] concerns the target T1, Recombinant G2019S-LRRK2 protein (Homo sapiens, UniProt Q5S007, G2019S).
T1 construct: purchased Life Technologies PV4881
Nature of the assay: LanthaScreen Kinase Activity Assay (TR-FRET), G2019S-LRRK2. Type of assay: biochemical. The settings on record: class symbols; 25 μM ATP, 400 nM LRRKtide, 2.9 nM kinase, 60 min at room temperature. The protocol:
(§1) LRRK2 kinase activity was measured using a LanthaScreen™ Kinase Activity Assay from ThermoFisher Scientific. Recombinant wild type or G2019S-LRRK2 protein (Life Technologies, PR8604B or PV4881, respectively), was incubated with a fluorescein-labeled peptide substrate called LRRKtide that is based upon ezrin/radixin/moesin (ERM) (Life Technologies, PV4901) in the presence of ATP and serially diluted compound. After an incubation period of 1 hr, the phosphotransferase activity was stopped and a terbium-labelled anti-pERM antibody (Life Technologies, PV4899) was added to detect the phosphorylation of LRRKtide by measuring the time resolved-Forster resonant energy transfer (TR-FRET) signal from the terbium label on the antibody to the fluorescein tag on LRRKtide, expressed as the 520 nm/495 nm emission ratio. Compound-dependent inhibition of the TR-FRET signal was used to generate a concentration-response curve for IC50 determination.
(§2) The assay was carried out under the following protocol conditions: 1 mM compound in DMSO was serially diluted 1:3, 11 points in DMSO with a Biomek FX and 0.1 μL of the diluted compound was subsequently stamped into the assay plate (384-well format Lumitrac 200, Greiner, 781075) with an Echo Labcyte such that the final compound concentration in the assay was 10 μM to […]. Subsequently, 5 μL of 2× kinase solution (2.9 nM final concentration) was added to the assay plate in assay buffer composed of 50 mM Tris pH 8.5 (Sigma, T6791), 5 mM MgCl2 (Fluka, 63020), 1 mM EGTA (Sigma, E3889), 0.01% BRIJ-35 (Sigma, P1254) and 2 mM DTT. The reaction was started by addition of 2×ATP/LRRKtide solution in assay buffer such that the final concentration was 400 nM LRRKtide and 25 μM ATP. After 60 min incubation at room temperature, the reaction was stopped by addition of […] containing a final concentration of 2 nM anti-pERM antibody and 10 mM EDTA. After a 30 min incubation at RT, the TR-FRET signal was measured on a Wallac 2104 EnVision® multilabel reader at an excitation wavelength of 340 nm and reading emission at 520 nm and 495 nm. The ratio of the 520 nm and 495 nm emission was used to analyze the data.

The target in assay [2] is T2, Recombinant wild type LRRK2 protein (Homo sapiens, UniProt Q5S007).
T2 construct: purchased Life Technologies PR8604B
Nature of the assay: LanthaScreen Kinase Activity Assay (TR-FRET), wild type LRRK2. The assay is classed as biochemical. The note with it: 25 μM ATP, 400 nM LRRKtide, 2.9 nM kinase, 60 min at room temperature, read-out: LRRK2 WT IC50. As to the method: as §1, §2

T2 sequence (Q5S007 whole entry): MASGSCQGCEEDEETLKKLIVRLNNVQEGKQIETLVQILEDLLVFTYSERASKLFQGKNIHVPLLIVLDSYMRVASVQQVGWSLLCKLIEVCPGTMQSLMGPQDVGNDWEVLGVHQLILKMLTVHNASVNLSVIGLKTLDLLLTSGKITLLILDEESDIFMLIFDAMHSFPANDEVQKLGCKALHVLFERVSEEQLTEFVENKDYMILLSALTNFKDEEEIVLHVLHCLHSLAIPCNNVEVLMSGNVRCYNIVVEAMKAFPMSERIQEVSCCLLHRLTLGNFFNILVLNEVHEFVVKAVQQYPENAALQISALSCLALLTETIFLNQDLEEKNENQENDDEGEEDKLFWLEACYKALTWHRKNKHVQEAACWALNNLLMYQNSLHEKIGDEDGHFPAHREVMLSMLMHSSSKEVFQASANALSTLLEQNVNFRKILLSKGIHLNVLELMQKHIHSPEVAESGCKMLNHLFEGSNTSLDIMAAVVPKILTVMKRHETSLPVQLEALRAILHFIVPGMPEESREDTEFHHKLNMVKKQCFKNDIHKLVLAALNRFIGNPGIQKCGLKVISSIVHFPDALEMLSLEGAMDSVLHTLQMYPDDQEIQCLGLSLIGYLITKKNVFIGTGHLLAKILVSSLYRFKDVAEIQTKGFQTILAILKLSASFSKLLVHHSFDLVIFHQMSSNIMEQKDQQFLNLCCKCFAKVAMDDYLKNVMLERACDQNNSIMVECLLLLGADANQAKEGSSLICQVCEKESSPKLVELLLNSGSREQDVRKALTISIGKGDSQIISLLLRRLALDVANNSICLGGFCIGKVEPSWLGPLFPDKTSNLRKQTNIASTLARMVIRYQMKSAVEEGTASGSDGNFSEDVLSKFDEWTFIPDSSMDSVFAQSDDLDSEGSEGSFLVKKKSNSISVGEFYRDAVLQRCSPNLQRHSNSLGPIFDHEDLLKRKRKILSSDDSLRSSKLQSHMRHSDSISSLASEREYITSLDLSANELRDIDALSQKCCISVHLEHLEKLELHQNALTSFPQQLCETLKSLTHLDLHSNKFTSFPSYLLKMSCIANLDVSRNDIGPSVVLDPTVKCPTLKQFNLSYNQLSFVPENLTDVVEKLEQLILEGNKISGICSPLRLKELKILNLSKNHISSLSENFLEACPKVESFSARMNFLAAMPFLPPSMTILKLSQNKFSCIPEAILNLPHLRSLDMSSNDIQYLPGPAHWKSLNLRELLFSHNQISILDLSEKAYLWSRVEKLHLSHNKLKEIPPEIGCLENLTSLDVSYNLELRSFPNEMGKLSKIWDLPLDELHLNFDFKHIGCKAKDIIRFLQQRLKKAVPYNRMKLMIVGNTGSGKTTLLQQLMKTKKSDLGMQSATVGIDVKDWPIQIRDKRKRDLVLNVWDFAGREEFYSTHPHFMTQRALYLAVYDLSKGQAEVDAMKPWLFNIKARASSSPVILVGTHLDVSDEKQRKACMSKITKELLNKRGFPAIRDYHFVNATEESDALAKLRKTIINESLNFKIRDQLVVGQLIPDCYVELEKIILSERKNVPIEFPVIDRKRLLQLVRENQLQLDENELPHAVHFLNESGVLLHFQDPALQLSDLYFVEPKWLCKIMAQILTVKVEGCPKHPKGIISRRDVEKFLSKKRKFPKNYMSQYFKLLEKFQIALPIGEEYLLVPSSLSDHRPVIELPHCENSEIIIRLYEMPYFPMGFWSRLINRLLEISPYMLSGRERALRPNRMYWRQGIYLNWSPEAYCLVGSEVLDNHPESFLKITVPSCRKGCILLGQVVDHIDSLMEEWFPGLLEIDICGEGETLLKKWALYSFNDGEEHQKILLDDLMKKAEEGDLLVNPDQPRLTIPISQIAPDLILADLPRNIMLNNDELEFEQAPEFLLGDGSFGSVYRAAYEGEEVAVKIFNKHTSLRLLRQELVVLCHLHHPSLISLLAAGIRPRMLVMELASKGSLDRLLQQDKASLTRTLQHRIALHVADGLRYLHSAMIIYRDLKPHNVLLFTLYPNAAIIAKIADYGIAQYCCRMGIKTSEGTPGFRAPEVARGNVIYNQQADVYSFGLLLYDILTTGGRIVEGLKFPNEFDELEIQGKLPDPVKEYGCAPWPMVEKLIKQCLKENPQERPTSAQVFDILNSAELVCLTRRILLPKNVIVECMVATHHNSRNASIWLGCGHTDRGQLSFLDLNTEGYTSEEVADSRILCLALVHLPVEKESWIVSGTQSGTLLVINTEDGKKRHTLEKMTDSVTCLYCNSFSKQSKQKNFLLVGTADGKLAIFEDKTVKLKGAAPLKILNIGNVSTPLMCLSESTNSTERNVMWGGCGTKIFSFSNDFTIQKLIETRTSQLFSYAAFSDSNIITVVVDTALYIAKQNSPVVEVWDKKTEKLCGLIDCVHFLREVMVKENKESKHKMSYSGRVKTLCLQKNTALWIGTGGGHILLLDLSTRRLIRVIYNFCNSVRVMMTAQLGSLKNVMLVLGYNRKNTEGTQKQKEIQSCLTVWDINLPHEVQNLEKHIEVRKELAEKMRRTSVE
T1 sequence (Q5S007 whole entry G2019S): as the sequence (Q5S007 whole entry) above, with G2019S counted along it

Turning to `Cc1ncc(-c2n[nH]c3ccc(NC(=O)c4c(F)cc5c(cnn5C)c4F)cc23)s1` [Example 95, 4,6-Difluoro-1-methyl-N-(3-(2-methylthiazol-5-yl)-1H-indazol-5-yl)-1H-indazole-5-carboxamide], the IC50 in assay [1] and in assay [2] (class symbols) was at most 0.1 µM each time.

Consider `Cc1c(C(=O)Nc2ccc3[nH]nc(-c4ccccc4)c3c2)c(Cl)cn2cnnc12` [Example 59, 6-Chloro-8-methyl-N-(3-phenyl-1H-indazol-5-yl)-[1,2,4]triazolo[4,3-a]pyridine-7-carboxamide], for which the IC50 in assay [1] and in assay [2] (class symbols) was at most 0.1 µM in each case.

`Cc1c(C(=O)Nc2ccc3[nH]nc(-c4ccccc4)c3c2)ccc2cncn12` [Example 62, 5-Methyl-N-(3-phenyl-1H-indazol-5-yl)imidazo[1,5-a]pyridine-6-carboxamide]: the IC50 in assay [1] is at most 0.1 µM; in assay [2] (class symbols), 0.1 to 1 µM.

As for `Cc1cc2cnsc2nc1C(=O)Nc1ccc2[nH]nc(-c3cnco3)c2c1` [Example 168, 5-Methyl-N-(3-(oxazol-5-yl)-1H-indazol-5-yl)isothiazolo[5,4-b]pyridine-6-carboxamide], the half-maximal inhibitory concentration (IC50) in assay [1] and in assay [2] (class symbols) was at most 0.1 µM each time.

Turning to `Cc1cc2cnnn2c(C)c1C(=O)Nc1ccc2[nH]nc(-c3ccco3)c2c1` [Example 155, N-(3-(Furan-2-yl)-1H-indazol-5-yl)-5,7-dimethyl-[1,2,3]triazolo[1,5-a]pyridine-6-carboxamide], the IC50 in assay [1] and in assay [2] (class symbols) was at most 0.1 µM in each case.

As to `Cn1ncc2c(F)c(C(=O)Nc3ccc4[nH]nc(-c5cnn(C(F)F)c5)c4c3)c(F)cc21` [Example 86, N-(3-(1-(Difluoromethyl)-1H-pyrazol-4-yl)-1H-indazol-5-yl)-4,6-difluoro-1-methyl-1H-indazole-5-carboxamide], the IC50 in assay [1] and in assay [2] (class symbols) was at most 0.1 µM in each case.

Consider `Cc1oncc1-c1n[nH]c2ccc(NC(=O)c3c(F)cc4c(cnn4C)c3F)cc12` [Example 29, 4,6-Difluoro-1-methyl-N-(3-(5-methylisoxazol-4-yl)-1H-indazol-5-yl)-1H-indazole-5-carboxamide], for which the IC50 was at most 0.1 µM in assay [1] and 0.1 to 1 µM in assay [2] (class symbols).

On to `Cn1ncc2c(F)c(C(=O)Nc3ccc4[nH]nc(Cc5ccccc5)c4c3)c(F)cc21` [Example 140, N-(3-Benzyl-1H-indazol-5-yl)-4,6-difluoro-1-methyl-1H-indazole-5-carboxamide], for which the IC50 lay within 0.1 to 1 µM in assay [1] and 1 to 10 µM in assay [2] (class symbols).

Turning to `Cn1ncc2c(F)c(C(=O)Nc3ccc4[nH]nc(-c5ccoc5)c4c3)c(F)cc21` [Example 28, 4,6-Difluoro-N-(3-(furan-3-yl)-1H-indazol-5-yl)-1-methyl-1H-indazole-5-carboxamide], the IC50 in assay [1] and in assay [2] (class symbols) was at most 0.1 µM in each case.

For the compound `O=C(Nc1ccc2[nH]nc(-c3ccoc3)c2c1)c1ccc2ncoc2c1` [Example 116, N-(3-(furan-3-yl)-1H-indazol-5-yl)benzo[d]oxazole-6-carboxamide], the results for the IC50 in assay [1] and in assay [2] (class symbols) were at most 0.1 µM and 0.1 to 1 µM, respectively.

Regarding `O=C(Nc1ccc2[nH]nc(-c3ccccc3)c2c1)c1cc2[nH]ncc2cc1C(F)(F)F` [Example 70, N-(3-Phenyl-1H-indazol-5-yl)-5-(trifluoromethyl)-1H-indazole-6-carboxamide], the figures for the IC50 in assay [1] and in assay [2] (class symbols) were at most 0.1 µM and 0.1 to 1 µM, respectively.

Consider `O=C(Nc1ccc2[nH]nc(-c3ccoc3)c2c1)C1CCc2nncn2C1` (single isomer, unassigned) [Example 162b], for which the IC50 in assay [1] is at most 0.1 µM; in assay [2] (class symbols), 0.1 to 1 µM.

For the compound `Cc1cc2[nH]cnc2cc1C(=O)Nc1ccc2[nH]nc(Br)c2c1` [Example 18, N-(3-Bromo-1H-indazol-5-yl)-6-methyl-1H-benzo[d]imidazole-5-carboxamide], the IC50 in assay [1] and in assay [2] (class symbols) was 0.1 to 1 µM in each case.

For `Cc1cc2cnnn2c(C)c1C(=O)Nc1ccc2[nH]nc(-c3ccccc3F)c2c1` [Example 44, N-(3-(2-Fluorophenyl)-1H-indazol-5-yl)-5,7-dimethyl-[1,2,3]triazolo[1,5-a]pyridine-6-carboxamide], the IC50 was at most 0.1 µM in assay [1] and 0.1 to 1 µM in assay [2] (class symbols).

As to `O=C(Nc1ccc2[nH]nc(-c3ccoc3)c2c1)c1ccn2nccc2n1` [Example 127, N-(3-(Furan-3-yl)-1H-indazol-5-yl)pyrazolo[1,5-a]pyrimidine-5-carboxamide], the IC50 in assay [1] is at most 0.1 µM; in assay [2] (class symbols), 0.1 to 1 µM.

For `Cc1nocc1-c1n[nH]c2ccc(NC(=O)c3c(F)cc4c(cnn4C)c3F)cc12` [Example 30, 4,6-Difluoro-1-methyl-N-(3-(3-methylisoxazol-4-yl)-1H-indazol-5-yl)-1H-indazole-5-carboxamide], the IC50 was at most 0.1 µM in assay [1] and 0.1 to 1 µM in assay [2] (class symbols).

For `COc1ccncc1-c1n[nH]c2ccc(NC(=O)c3c(F)cc4c(cnn4C)c3F)cc12` [Example 102, 4,6-Difluoro-N-(3-(4-methoxypyridin-3-yl)-1H-indazol-5-yl)-1-methyl-1H-indazole-5-carboxamide], the IC50 in assay [1] was at most 0.1 µM; in assay [2] (class symbols), 0.1 to 1 µM.

Take `Cn1ncc2cc(C(=O)Nc3ccc4[nH]nc(-c5cnco5)c4c3)ncc21` [Example 167, 1-Methyl-N-(3-(oxazol-5-yl)-1H-indazol-5-yl)-1H-pyrazolo[3,4-c]pyridine-5-carboxamide]: the IC50 in assay [1] is at most 0.1 µM; in assay [2] (class symbols), 0.1 to 1 µM.

Turning to `Cc1cn2cncc2cc1C(=O)Nc1ccc2[nH]nc(-c3ccccc3)c2c1` [Example 52, 6-Methyl-N-(3-phenyl-1H-indazol-5-yl)imidazo[1,5-a]pyridine-7-carboxamide], the 50% inhibitory concentration (IC50) in assay [1] and in assay [2] (class symbols) was at most 0.1 µM in each case.

`O=C(Nc1ccc2[nH]nc(-c3ccoc3)c2c1)c1ccc2ocnc2c1` [Example 126, N-(3-(Furan-3-yl)-1H-indazol-5-yl)benzo[d]oxazole-5-carboxamide]: the IC50 was at most 0.1 µM in assay [1] and 0.1 to 1 µM in assay [2] (class symbols).

Consider `Cn1ncc2c(F)c(C(=O)Nc3ccc4[nH]nc(C5=CCCO5)c4c3)c(F)cc21` [Example 72, N-(3-(4,5-Dihydrofuran-2-yl)-1H-indazol-5-yl)-4,6-difluoro-1-methyl-1H-indazole-5-carboxamide], for which the results for the IC50 in assay [1] and in assay [2] (class symbols) were 0.1 to 1 µM and 1 to 10 µM, respectively.

For `COc1cccc(-c2n[nH]c3ccc(NC(=O)c4c(F)cc5c(cnn5C)c4F)cc23)c1` [Example 84, 4,6-Difluoro-N-(3-(3-methoxyphenyl)-1H-indazol-5-yl)-1-methyl-1H-indazole-5-carboxamide], the IC50 in assay [1] and in assay [2] (class symbols) was at most 0.1 µM throughout.

As to `Cc1cc2cncn2c(C)c1C(=O)Nc1ccc2[nH]nc(-c3ccccc3)c2c1` [Example 69, 5,7-Dimethyl-N-(3-phenyl-1H-indazol-5-yl)imidazo[1,5-a]pyridine-6-carboxamide], the IC50 in assay [1] and in assay [2] (class symbols) was at most 0.1 µM in each case.

Regarding `Cc1noc(C)c1-c1n[nH]c2ccc(NC(=O)c3c(F)cc4c(cnn4C)c3F)cc12` [Example 36, N-(3-(3,5-Dimethylisoxazol-4-yl)-1H-indazol-5-yl)-4,6-difluoro-1-methyl-1H-indazole-5-carboxamide], the results for the IC50 in assay [1] and in assay [2] (numeric bound instead of class symbol) were 1 to 10 µM and over 10 µM, respectively.

For `Cn1ncc2c1CCC(C(=O)Nc1ccc3[nH]nc(-c4ccoc4)c3c1)C2` (single isomer, unassigned) [Example 161a], the IC50 in assay [1] and in assay [2] (class symbols) was at most 0.1 µM each time.

On to `Cn1cc2cc(C(=O)Nc3ccc4[nH]nc(-c5cnco5)c4c3)ncc2n1` [Example 159, 2-Methyl-N-(3-(oxazol-5-yl)-1H-indazol-5-yl)-2H-pyrazolo[3,4-c]pyridine-5-carboxamide], for which the IC50 in assay [1] and in assay [2] (class symbols) was at most 0.1 µM in each case.

For the compound `Cc1cn2cncc2cc1C(=O)Nc1ccc2[nH]nc(-c3ccco3)c2c1` [Example 154, N-(3-(Furan-2-yl)-1H-indazol-5-yl)-6-methylimidazo[1,5-a]pyridine-7-carboxamide], the IC50 in assay [1] and in assay [2] (class symbols) was at most 0.1 µM in each case.

Turning to `Cn1ncc2c(F)c(C(=O)Nc3ccc4[nH]nc(-c5ccccc5)c4c3)c(F)cc21` [Example 50, 4,6-Difluoro-1-methyl-N-(3-phenyl-1H-indazol-5-yl)-1H-indazole-5-carboxamide], the IC50 was at most 0.1 µM in assay [1] and 0.1 to 1 µM in assay [2] (class symbols).

As a reminder, the IC50 is the concentration at which inhibition is half-maximal.

These data come from US20220162192A1 (ESCAPE Bio, Inc., priority 2019, published 2022).
